# According to PubChem BioAssay (NCI):
#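 1) Cells in 96-well plates. 2) Compound, 48 h, 5 concentrations. 3) Linear interpolation between surrounding doses. 4) Unreached endpoint = highest concentration. GI50 is the concentration that inhibits growth by half. TGI: concentration producing complete growth inhibition.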
# How the values were obtained:
# Assay in all cases: NCI anticancer screen, dose series, 48 h
# [1] = system: UACC-257 melanoma
# [2] = system: OVCAR-8 ovarian
# [3] = system: SK-OV-3 ovarian
# [4] = system: COLO 205 colon
# [5] = system: SF-268 CNS
# [6] = system: OVCAR-5 ovarian
# [7] = system: PC-3 prostate
# [8] = system: HCC-2998 colon
# [9] = system: RXF 393 renal
# [10] = system: NCI-H522 lung
# [11] = system: SF-539 CNS
# [12] = system: HL-60(TB) leukemia
# [13] = system: SK-MEL-28 melanoma
# [14] = system: HT29 colon
# [15] = system: MOLT-4 leukemia
# [16] = system: A549 NSCLC
# [17] = system: SF-295 CNS
# [18] = system: UACC-62 melanoma
# [19] = system: ACHN renal
# [20] = system: NCI-H23 lung
# [21] = system: MDA-MB-231 breast
# [22] = system: TK-10 renal
# [23] = system: HOP-92 NSCLC
# [24] = system: U251 CNS
# [25] = system: MALME-3M melanoma
# [26] = system: EKVX NSCLC
# [27] = system: NCI-H226 lung
# [28] = system: M14 melanoma
# [29] = system: MDA-MB-468 breast
compound,measurement,setting,value
COc1cc2cc(C(=O)N3C[C@@H](CCl)c4c3cc(OC(=O)N(CCC(=O)N3CCN(C)CC3)C3CCCCC3)c3ccccc43)[nH]c2c(OC)c1OC,GI50,[1],1.99 µM
same,TGI,[1],4.63 µM
same,GI50,[2],1.66 µM
same,TGI,[2],10.1 µM
same,GI50,[3],2.15 µM
same,TGI,[3],9.35 µM
same,GI50,[4],1.37 µM
same,TGI,[4],2.8 µM
same,GI50,[5],1.54 µM
same,TGI,[5],7.45 µM
same,GI50,[6],5.11 µM
same,TGI,[6],27.9 µM
same,GI50,[7],3.14 µM
same,TGI,[7],> 100 µM
same,GI50,[8],1.52 µM
same,TGI,[8],3.48 µM
same,GI50,[9],1.06 µM
same,TGI,[9],2.46 µM
same,GI50,[10],1.7 µM
same,TGI,[10],4.53 µM
same,GI50,[11],1.31 µM
same,TGI,[11],3.87 µM
same,GI50,[12],0.751 µM
same,TGI,[12],3.73 µM
same,GI50,[13],3.58 µM
same,TGI,[13],8.96 µM
same,GI50,[14],1.52 µM
same,TGI,[14],4.24 µM
same,GI50,[15],0.594 µM
same,TGI,[15],10.1 µM
same,GI50,[16],1.99 µM
same,TGI,[16],> 100 µM
same,GI50,[17],1.55 µM
same,TGI,[17],6.79 µM
same,GI50,[18],1.53 µM
same,TGI,[18],3.28 µM
same,GI50,[19],0.493 µM
same,TGI,[19],10.7 µM
same,GI50,[20],0.471 µM
same,TGI,[20],1.93 µM
same,GI50,[21],3.07 µM
same,TGI,[21],8.63 µM
same,GI50,[22],2.85 µM
same,TGI,[22],8.53 µM
same,GI50,[23],2.5 µM
same,TGI,[23],9.46 µM
same,GI50,[24],1.51 µM
same,TGI,[24],4.46 µM
same,GI50,[25],1.57 µM
same,TGI,[25],3.05 µM
same,GI50,[26],1.95 µM
same,TGI,[26],5.89 µM
same,GI50,[27],1.44 µM
same,TGI,[27],4.21 µM
same,GI50,[28],1.52 µM
same,TGI,[28],4.24 µM
same,GI50,[29],0.688 µM
same,TGI,[29],2.29 µM
